According to publication PMC10509167, “Identification and characterization of endo-α-, exo-α-, and exo-β-D-arabinofuranosidases degrading lipoarabinomannan and arabinogalactan of mycobacteria” (Nature Communications, 2023):

Biological target: T1, EndoMA1 (MIAR_33230) (Microbacterium arabinogalactanolyticum, UniProt A0AAJ6N6D4)
T1 construct: 53,678 Da monomer, dimer; catalytic domain plus putative CBM
Assay: X-ray crystallography ([…] Å)
Assay type: binding
Settings: co-crystallized with A9LT; second site, putative CBM domain; possible crystal packing artifact

T1 sequence (A0AAJ6N6D4 entry or part of it): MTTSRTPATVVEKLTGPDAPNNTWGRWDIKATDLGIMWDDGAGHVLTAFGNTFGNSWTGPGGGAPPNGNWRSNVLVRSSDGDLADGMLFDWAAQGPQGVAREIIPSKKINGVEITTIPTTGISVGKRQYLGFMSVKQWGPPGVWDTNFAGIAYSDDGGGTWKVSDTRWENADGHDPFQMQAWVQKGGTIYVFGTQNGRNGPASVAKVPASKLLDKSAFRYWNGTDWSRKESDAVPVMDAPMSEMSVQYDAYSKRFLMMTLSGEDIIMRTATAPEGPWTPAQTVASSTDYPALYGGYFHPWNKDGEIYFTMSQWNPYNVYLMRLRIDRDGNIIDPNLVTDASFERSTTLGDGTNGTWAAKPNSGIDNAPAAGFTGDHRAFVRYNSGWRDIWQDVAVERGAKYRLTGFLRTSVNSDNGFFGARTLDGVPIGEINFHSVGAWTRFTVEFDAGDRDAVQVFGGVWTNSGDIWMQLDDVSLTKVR

## OC[C@H]1O[C@H](OC[C@H]2O[C@H](OC[C@H]3O[C@H](OC[C@H]4OC(O)[C@@H](O)[C@@H]4O)[C@@H](O)[C@@H]3O)[C@@H](O)[C@@H]2O)[C@@H](O)[C@@H]1O (stereo partly shown) [A4L]
  X-ray crystallography (1.80 Å): The A4L molecule is bound to the shallow surface of the putative CBM domain
